What was measured:
Assay in all cases: relative viability (nuclei count vs DMSO), 5 days (fraction); higher = more cells survive
AZD6482 + Phenformin = compound: Cc1cc([C@@H](C)Nc2ccccc2C(=O)O)c2nc(N3CCOCC3)cc(=O)n2c1 [AZD6482] + N=C(N)NC(=N)NCCc1ccccc1 [Phenformin] (partner 250 µM)
Summary of the method: (§1)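 Dosing by pin tool came one day after lung cancer cell lines were seeded in 1536-well plates, using either one drug or a fixed anchor-drug dose plus five library-drug doses (not always all listed) in √10 steps. After 5 days, nuclei were counted on 4× images. Relative viability is treated-well nuclei count divided by vehicle-well nuclei count, and values are medians of duplicate plates.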

AZD6482 = compound: Cc1cc([C@@H](C)Nc2ccccc2C(=O)O)c2nc(N3CCOCC3)cc(=O)n2c1 [AZD6482]
Summary of the method: (§2)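 Vehicle-anchored 1536-well plates of lung cancer cell lines, held overnight at 37 °C, were pinned with five library-drug doses (not always all listed) spaced by √10. No medium change followed over the next 5 days, after which the cells were fixed, permeabilised and Hoechst-stained together and imaged at 4×. Nuclei were counted with MetaXpress, and viability is treated-well nuclei over vehicle-well nuclei, taken as a median across plates. Plates passed with control CV below 25% and at least one doubling.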

[1] = compound: COc1cc2nc(N3CCCN(C)CC3)nc(NC3CCN(Cc4ccccc4)CC3)c2cc1OC
Summary of the method: as §2

[2] = compound: COc1cc2nc(N3CCCN(C)CC3)nc(NC3CCN(Cc4ccccc4)CC3)c2cc1OC + CC1(C)CCC(c2ccc(Cl)cc2)=C(CN2CCN(c3ccc(C(=O)NS(=O)(=O)c4ccc(N[C@H](CCN5CCOCC5)CSc5ccccc5)c(S(=O)(=O)C(F)(F)F)c4)cc3)CC2)C1 [Navitoclax] (partner 0.5 µM)
Summary of the method: as §1

Cell Line	relative viability (AZD6482 + Phenformin; first compound 0.08 µM)	relative viability (AZD6482 + Phenformin; first compound 0.253 µM)	relative viability (AZD6482 + Phenformin; first compound 0.8 µM)	relative viability (AZD6482 + Phenformin; first compound 2.53 µM)	relative viability (AZD6482 + Phenformin; first compound 8 µM)	relative viability (AZD6482; 0.08 µM)	relative viability (AZD6482; 0.253 µM)	relative viability (AZD6482; 0.8 µM)	relative viability (AZD6482; 2.53 µM)	relative viability (AZD6482; 8 µM)	relative viability ([1]; 0.2 µM)	relative viability ([1]; 0.6325 µM)	relative viability ([1]; 2 µM)	relative viability ([1]; 6.325 µM)	relative viability ([2]; first compound 0.2 µM)	relative viability ([2]; first compound 0.6325 µM)	relative viability ([2]; first compound 2 µM)	relative viability ([2]; first compound 6.325 µM)
NCI-H2342	0.517	0.569	0.682	0.373	0.429	0.892	0.87	0.92	0.653	0.688	1.02	0.887	0.956	0.995	–	–	–	–
HCC-15	0.499	0.462	0.457	0.349	0.406	1.03	0.962	1.04	0.857	0.945	0.985	0.977	1.06	0.862	0.725	0.749	0.765	0.487
A-427	0.345	0.232	0.319	–	0.225	0.965	0.884	1.02	0.651	0.974	0.922	1.06	1.01	0.882	1.04	0.966	1	0.948
NCI-H2228	–	0.315	0.324	0.309	0.284	0.745	0.965	1.17	0.775	0.901	0.9	1.12	1.07	0.753	0.703	0.742	0.797	0.415
NCI-H1734	0.386	0.333	0.465	0.229	0.226	0.905	0.907	1.04	0.611	0.795	0.967	0.876	0.889	0.855	0.883	0.757	0.83	0.599
PC-14	0.488	0.438	0.59	–	0.534	0.953	0.972	1.12	0.849	0.979	0.97	1.05	0.977	0.475	1	0.93	1.14	0.882
NCI-H1915	0.379	0.334	0.384	0.326	0.357	0.996	0.897	1.09	0.893	1.01	0.978	0.908	1.06	0.973	0.805	0.772	0.843	0.797
NCI-H1666	0.532	0.548	0.582	0.525	0.577	0.842	0.95	0.984	0.853	1.05	0.948	1.05	0.947	0.903	0.934	1.16	1.03	0.642
HCC-366	0.663	0.609	0.636	0.477	0.45	0.975	0.979	0.996	0.885	0.827	1.01	1.03	0.968	1.01	1.04	1.12	1.21	1.05
SK-MES-1	0.612	0.75	0.611	0.357	0.406	0.794	0.946	0.709	0.405	0.444	1.01	1.01	1.03	0.791	1.14	1.24	1.36	0.999
SW 1573	0.301	0.296	0.383	0.19	0.221	0.916	0.908	0.818	0.677	0.674	0.906	0.983	1.02	0.651	0.941	0.868	1.08	0.755
NCI-H661	0.285	0.274	0.297	0.245	0.216	0.981	0.98	0.973	0.671	0.851	0.978	0.987	1	1.01	–	–	–	–
PC-3 [JPC-3]	0.418	0.492	0.508	0.406	0.391	0.899	1.06	1.08	0.814	0.985	1.06	1.02	1.06	0.959	0.89	0.815	0.775	0.741
NCI-H1623	0.577	0.579	0.531	0.502	0.534	0.899	0.947	0.955	0.76	0.632	0.933	0.965	0.979	0.966	–	–	–	–
Calu-6	–	–	–	–	–	0.951	0.938	0.992	0.824	0.875	0.968	0.942	1.09	0.913	0.84	0.809	0.763	0.602
LC-2-ad	0.615	0.497	0.6	0.442	0.471	0.982	0.891	1.07	0.658	0.693	0.929	1.05	1.09	0.955	0.363	0.447	0.444	0.397
